Experiments:
adiponectin [1] = experiment: Serum adiponectin levels in rats orally administered β-NMN (Example 1); type: in vivo, rat; details: CD rats, males and females, oral 250 and 1000 mg/kg/day, day 28
Experimental: (§1) A solution prepared by dissolving β-NMN (Oriental Yeast Co., Ltd.) in water for injection (Otsuka Pharmaceutical Co., Ltd.) or PBS (phosphate-buffered saline) was orally administered by gavage using a metal gastric tube (Fuchigami Kikai Co., Ltd.) attached to a polypropylene disposable syringe (Terumo Corp.).
(§2) Measurement of adiponectin levels in the following experiments was carried out in the manner indicated below.
(§3) Anti-mouse adiponectin polyclonal antibody (Oriental Yeast Co., Ltd.) was adjusted to 10 μg/mL with PBS for use as primary antibody solution. […]
(§4) Moreover, 100 μl of substrate solution (Becton Dickinson & Co., TMB Substrate Reagent Set, #555214) were added to each well, and the plate covered with sealing film was incubated for 15 minutes at 25° C. After stopping the reaction by adding 100 μL of 2 N sulfuric acid to each well, the absorbance of each well was measured at a primary wavelength of 450 nm and a secondary wavelength of 570 nm with a plate reader (FLOUstar Optima, BMG LabTech Ltd.). Furthermore, since the mouse adiponectin polyclonal antibody used in ELISA cross-reacts with rat adiponectin, levels of rat adiponectin were measured as mouse adiponectin by using standard mouse adiponectin. […]
Rat serum adiponectin levels were measured on day 28 from the start of administration.

adiponectin [2] = experiment: Serum adiponectin levels in mice orally administered β-NMN (Example 2); type: in vivo, mouse; details: C57BL/6N mice, females, oral 125 and 625 mg/kg/day, day 4
Experimental: as §1, §2, §3, §4
(§5) Mouse serum adiponectin levels were measured on day 4 from the start of administration. […]

adiponectin [3] = experiment: Serum adiponectin levels in mice intraperitoneally administered β-NMN (Example 3); type: in vivo, mouse; details: C57BL/6J mice, females, intraperitoneal 625 and 1250 mg/kg/day, day 4
Experimental: A solution prepared by dissolving β-NMN (Oriental Yeast Co., Ltd.) in PBS (phosphate-buffered saline) was administered intraperitoneally in accordance with the method of Dr. Sinclair (Gomes, et al., Cell, 2013, Vol. 155, p. 1624-1638) and the method of Dr. Imai (Yoshino, et al., Cell Metabolism, 2011, Vol. 14, p. 528-536).
as §2, §3, §4, §5

[4] = system: adipocytes differentiated from mouse fibroblast 3T3-L1 cells; experiment: Adiponectin secreted from adipocytes differentiated from 3T3-L1 cells stimulated with β-NMN (Example 4); type: cell-based; details: 3T3-L1 adipocytes cultured with β-NMN for 7 days vs without
Experimental: 3T3-L1 cells were differentiated into adipocytes and then the cells were stimulated with β-NMN to measure the secreted amount of adiponectin. The 3T3-L1 cells were differentiated into adipocytes in the manner described below. First, 3T3-L1 cells were seeded in a 24-well plate at 5×10^4 cells/well followed by culturing for 2 to 3 days in culture medium (DMEM containing 10% fetal bovine serum (FBS)) at 37° C. in 5% CO2. Next, the culture medium was replaced with a first differentiation-inducing medium (containing 10 μM dexamethasone, 5 μM 3-isobutyl-1-methylxanthine (IBMX) and 10 μg/mL of insulin) followed by culturing for 2 days at 37° C. in 5% CO2. The medium was replaced with the second differentiation-inducing medium (containing 10 μg/mL of insulin) followed by culturing for 2 days at 37° C. in 5% CO2. Subsequently, the medium was twice replaced with culture medium every 2 to 3 days to differentiate the 3T3-L1 cells into mature adipocytes. 3T3-L1 adipocytes were cultured in the presence (“NMN addition”) or absence (“NMN non-addition”) of β-NMN for 7 days. The amount of adiponectin secreted into the culture supernatant was measured. The results of measurement of adiponectin levels in the culture supernatant are shown in. FIG. 4. […]

[5] = system: ANKO mice (adipose tissue-specific NAMPT knockout mice); experiment: NAD+ precursor rescue experiments in ANKO mice (Example 5); type: in vivo, mouse
Excerpt: To determine whether metabolic derangements depend on the defects in NAD+ biosynthesis in ANKO mice, we treated mice with NMN, a key NAD+ intermediate and the product of the NAMPT reaction (FIG. 6A). In the diagram, “NA” represents nicotinic acid, “NaMN” represents nicotinic acid mononucleotide, “NIC” represents nicotinamide, “NR” represents nicotinamide riboside, “Tip” represents tryptophan, and “NAPRT” represents nicotinate phosphoribosyl transferase. NMN is a product of an enzyme reaction mediated by NAMPT and is converted directly to NAD+. Nicotinic acid is a precursor in the NAPRT-dependent NAD+ biosynthesis pathway.
ANKO mice were generated by using adiponectin-Cre transgenic mice and floxed-Nampt mice as previously described (Noon et al., 2015). Mice were maintained on a standard chow diet (LabDiet 5053; LabDiet) ad libitum. For RSG rescue experiments, ANKO mice received a chow containing RSG (#71740; Cayman Chemical) at the approximate dose of 20 mg/kg body Weight/day soon after weaning for up to 7 weeks. For NAD+ precursor rescue experiments, we administered NMN (#44500900; Oriental Yeast) and NA (#72309; Sigma-Aldrich) in drinking water, at the approximate dose of 500 mg/kg of body weight, to ANKO mice soon after weaning for up to 2 months.
More specifically, drinking water containing NMN (500 mg/kg body weight/day) was administered to the female ANKO mice and metabolic parameters were investigated after administering NMN for 4 to 6 weeks. In the graphs, “NMN-ANKO” indicates the results for NMN-treated ANKO mice, “ANKO” indicates the results for NMN-untreated ANKO mice of the same age as the NMN-treated ANKO mice, and “flox/flox” indicates the results for the control mice (female Nampt-floxed (flox/flox) mice). All values in the graphs represent the mean ±SE. In the graphs, “*” indicates p<0.05, “**” indicates p<0.01, and “***” indicates p<0.001 (NMN-treated ANKO mice vs. NMN-untreated ANKO mice, Student's t-test). In addition, in the graphs, “a” indicates p<0.05 (NMN-treated ANKO mice vs. NMN-untreated ANKO mice, ANOVA), and “b” indicates p<0.05 (control mice vs. NMN-untreated ANKO mice, ANOVA).
FIG. 6B indicates the results of measuring […] levels in adipose tissue for female ANKO mice administered NMN for 4 to 6 weeks (500 mg/kg body weight day) and non-dosed female ANKO mice of the same age (per group, n=5 to 7). NAD+ levels were measured with an HPLC (high-performance liquid chromatography) system using a Supelco LC-18-T column (#58970-U, Sigma-Aldrich Corp.) (Yoon, et al., Cell Metabolism, 2015, Vol. 21, p. 706-717). FIG. 6C indicates the results of having carried out an insulin tolerance test (ITT), consisting of administering insulin and measuring blood glucose concentration over time, on NMN-treated mice following administration of NMN for 4 weeks (n=7) and non-dosed ANKO mice for which age has been aligned at 2 to 3 weeks (n=14), and control mice (n=8). The left graph in FIG. 6C indicates the results for changes in glucose concentration over time (insulin tolerance curve), while the graph on the right side of FIG. 6C indicates the results for the area under the curve (AUC) of glucose concentration.
The results for measuring plasma insulin concentrations for NMN-treated ANKO mice, NMN-untreated ANKO mice and control mice are shown in FIG. 6D, while the results of measuring plasma free fatty acid (FFA) concentrations are shown in FIG. 6E (per group, n=5 to 11). In addition, visceral adipose tissue was respectively sampled from NMN-treated ANKO mice and NMN-untreated ANKO mice followed by measurement of the levels of PPARγ (Ser273), CDK5 and nuclear protein acetylated lysine in the visceral adipose tissue (per group, n=3 to 4). […]

[6] = ANKO mice, NMN 500 mg/kg body weight/day, 4 to 6 weeks
[7] = NMN-treated vs untreated ANKO mice
[8] = visceral adipose tissue, NMN-treated vs untreated ANKO mice

Structure (SMILES) | serum adiponectin levels (adiponectin [1]) | serum adiponectin levels (adiponectin [2]) | serum adiponectin levels (adiponectin [3]) | adiponectin levels in the culture supernatant [4] | insulin sensitivity (insulin tolerance test) ([5]; ANKO mice, NMN 500 mg/kg body weight/day for 4 weeks, vs age-matched untreated ANKO mice) | plasma FFA concentrations [5, 6] | plasma insulin concentrations [5, 6] | plasma concentrations of adiponectin [5, 7] | plasma concentrations of adipsin [5, 7] | adipose tissue NAD+ concentrations ([5]; female ANKO mice, NMN 500 mg/kg body weight/day in drinking water, 4 to 6 weeks) | Adipose tissue gene expression of adiponectin and adipsin [5, 8] | global nuclear lysine acetylation [5, 8] | phosphorylation of CDK5 in VAT [5, 8] | phosphorylation of PPARγ (Ser273) in VAT [5, 8] | metabolic disorders of ANKO mice ([5]; β-NMN 500 mg/kg body weight/day in drinking water, 4 to 6 weeks) | metabolic disorders of ANKO mice ([5]; nicotinic acid 500 mg/kg body weight/day, 5- to 7-week administration)
NC(=O)c1ccc[n+]([C@@H]2O[C@H](COP(=O)([O-])O)C(O)[C@H]2O)c1 (stereo partly drawn) [β-NMN, Nicotinamide mononucleotide] | increased serum adiponectin levels dose-dependently | increased serum adiponectin levels dose-dependently | increased serum adiponectin levels dose-dependently | higher | improved | normalized | normalized | restored | restored | significantly increased | restored | reduced | decreased | decreased | improved | –
O=C(O)c1cccnc1 [nicotinic acid, reference compound] | – | – | – | – | – | – | – | – | – | – | – | – | – | – | – | improved

From patent publication US10695360B2, “Adiponectin secretion enhancer” (WASHINGTON UNIVERSITY, priority 2017, dated 2020)
